Where “and” joins values, the source holds several entries; their conditions need not be identical. Equal values may be shown once.

This is an account of results in PMC2838427 (British journal of haematology, 2009).

The conditions of data set [1]: patients with chronic myelogenous leukemia; ref Picard, et al 2007; cited from earlier work.
In a further data set the test system is fetal hemoglobin (HbF). Briefly: Blood fetal hemoglobin. In kind it is in vivo, patients.
The test system of data set [2] is histone H3 acetylation in peripheral blood mononuclear cells (PBMCs). The settings on record: human, in vivo.
Data set [3] relates to ABCB1 gene expression in PBMCs. The conditions noted are these: human, in vivo.
Data set [4] deals with ABCB1 gene expression in tumor biopsy samples. The settings on record: in vivo.

For `Cc1ccc(NC(=O)c2ccc(CN3CCN(C)CC3)cc2)cc1Nc1nccc(-c2cccnc2)n1` [imatinib], in data set [1], the “trough plasma threshold associated with response” value is 1002 ng/mL.

As to `C/C=C1\NC(=O)[C@H]2CSSCC/C=C/[C@H](CC(=O)N[C@H](C(C)C)C(=O)N2)OC(=O)[C@H](C(C)C)NC1=O` [romidepsin, (E)-(1S,4S,10S,21R)-7-[(Z)-Ethylidene]-4,21-diisopropyl-2-oxa-12,13-dithi a-5,8,20,23-tetraazabicyclo[8,7,6]-tricos-16-ene-3,6,9,22-pentanone], in the data set on fetal hemoglobin (HbF) (61 patients), the “median time to peak induction of HbF” value was determined as 99 days and the “range of time to peak induction of HbF” value fell in the range of 27 to 295 days. The “HbF fold change, range” value with fetal hemoglobin (HbF) (CR/PR) is reported as 1.69–23.00. Besides, in the data set with fetal hemoglobin (HbF) (Final vs baseline, n=49), the “patients with fold increase 2 ≤ x < 4 in hemoglobin F, number (%)” value is reported as 9 (18%); the “patients with fold increase x < 2 in hemoglobin F, number (%)” value is 20 (41%); the “patients with fold increase x ≥ 4 in hemoglobin F, number (%)” value is on record as 20 (41 %). In the data set with fetal hemoglobin (HbF) (Peak vs baseline, n=52), the “patients with fold increase 2 ≤ x < 4 in hemoglobin F, number (%)” value is on record as 7 (13%); the “patients with fold increase x < 2 in hemoglobin F, number (%)” value is reported as 14 (27%); the “patients with fold increase x ≥ 4 in hemoglobin F, number (%)” value is reported as 31 (60%). Moreover, the “HbF fold change, range” value in the data set on fetal hemoglobin (HbF) (SD/PD) was 0.95–11.50. In addition, the “patients with > 4-fold rise in HbF levels” value in the data set with fetal hemoglobin (HbF) (peak vs baseline) is on record as 60%. Also, the “patients with two-fold or greater induction of fetal hemoglobin” value in the data set on fetal hemoglobin (HbF) (peak vs baseline, zero baselines reassigned 0.2%) is 73%. In data set [2], the “patients with at least a 2-fold increase in global histone acetylation” value is given as 73%; the “patients with fold increase x < 2 in histone acetylation, number (%)” value was 21 (57%) and 11 (61%). Further, in data set [3], the “median fold increase in ABCB1 mRNA expression” value is 2.74 and 1.78; the “patients having ABCB1 levels 2-fold or higher than baseline” value is 56% and 37%; the “samples again showing less than 2-fold ABCB1 increase at 24 h” value is reported as 71%. In addition, in data set [4], the “fold increase in ABCB1 in a biopsy sample, one patient” value is reported as “greater than 30”; the “fold increase in ABCB1 in biopsy samples, all other values” is recorded as “below 8”; the “increase in median ABCB1 level on-study to off study” value came to 50%; the “pre/post sample sets with greater than 50% increase in ABCB1 expression level” value was “Fourteen”. Also, in data set [4], the “pre/post samples with two-fold or greater increase in ABCB1 level” value was “eight”.
